Reference: patent US20220064195A1, “SYNTHETIC I2 IMIDAZOLINE RECEPTOR LIGANDS FOR PREVENTION OR TREATMENT OF HUMAN BRAIN DISORDERS” (Universitat de Barcelona, priority 2018, published 2022)
“And” between values parts separate entries of the source, which are not always exact repeats. Equal entries are not always repeated. Where two headings read alike, the source gives them in different places.

What was measured:
[1] = predictive penetration in the CNS from PAMPA-BBB Pe
Method: (§1) To evaluate the brain penetration of the different compounds, a parallel artificial membrane permeation assay for blood-brain barrier was used, following the method described by Di et al. (cf. Table 2). The in vitro permeability (Pe) of fourteen commercial drugs through lipid extract of porcine brain membrane together with the test compounds were determined. Commercial drugs and assayed compounds were tested using a mixture of PBS:EtOH (70:30).

I2-IR = assay: Competition binding against the selective I2-IR radioligand [3H]-2-BFI in membranes from post-mortem human frontal cortex; conditions: for [^3H]-2-BFI I2 binding affinity (pKi): membranes from post-mortem human frontal cortex, radioligand [3H]-2-BFI
in vitro = conditions: pig, PAMPA
Method: as §1

[2] = Dissolution of test compounds noted in the PAMPA-BBB assay (PBS:EtOH 70:30); format: physicochemical; parameters: key: *= poor dissolution
Method: as §1

Which “CNS Prediction” value [1] does the source give for `CCOP(=O)(OCC)[C@]1(c2ccccc2)N=C[C@H]2C(=O)N(C3CCCCC3)C(=O)[C@H]21` (racemic) [Compound I-07, Diethyl (1RS,3aSR,6aSR)-5-cyclohexyl-4,6-dioxo-1-phenyl-1,3a,4,5,6,6a-hexahydropyrrolo[3,4-c]pyrrole-1-phosphonate] here?
The value was “CNS+ (compounds of high BBB permeation (CNS+): Pe (10^−6 cm s^−1)>5,179)”.

And the “[^3H]-2-BFI I2 binding affinity (pKi)” value (I2-IR)?
The value was 9.74 ± 0.29.

What about the Papp (in vitro) of the same compound?
The Papp was 25.9 ± 0.6 ×10⁻⁶ cm/s.

For `CCOP(=O)(OCC)[C@]1(c2ccccc2)N=C[C@H]2C(=O)N(c3ccccc3)C(=O)[C@H]21` (racemic) [Compound I-16, Diethyl (1RS,3aSR,6aSR)-4,6-dioxo-1,5-diphenyl-1,3a,4,5,6,6a-hexahydropyrrolo[3,4-c]pyrrole-1-phosphonate], which “CNS Prediction” value [1] is on record?
Its value is “CNS+ (compounds of high BBB permeation (CNS+): Pe (10^−6 cm s^−1)>5,179)”.

What about the “[^3H]-2-BFI I2 binding affinity (pKi)” value (I2-IR) of the same compound?
Its value is 10.28 ± 0.37.

And the Papp (in vitro)?
The Papp was 7.8 ± 0.6 ×10⁻⁶ cm/s.

Which “CNS Prediction” value [1] does the source give for `CCOP(=O)(OCC)[C@]1(c2ccccc2)N=C[C@H]2C(=O)N(c3ccc(OC)cc3)C(=O)[C@H]21` (racemic) [Compound I-22, Diethyl (1RS,3aSR,6aSR)-5-(4-methoxyphenyl)-4,6-dioxo-1-phenyl-1,3a,4,5,6,6a-hexahydropyrrolo[3,4-c]pyrrole-1-phosphonate] here?
The value was “CNS+/− (compounds of uncertain BBB permeation (CNS+/−): 5,179>Pe (10^−6 cm s^−1)>2,083)”.

And the “[^3H]-2-BFI I2 binding affinity (pKi)” value (I2-IR)?
Its value is 6.65 ± 1.27.

What about the Papp (in vitro) of the same compound?
Its Papp is 3.9 ± 0.15 ×10⁻⁶ cm/s.

Which results are given for `CCOP(=O)(OCC)[C@]1(C)N=C[C@H]2C(=O)N(C)C(=O)[C@H]21` (racemic) [Compound I-25, Diethyl (1RS,3aRS,6aRS)-1,5-dimethyl-4,6-dioxo-1,3a,4,5,6,6a-hexahydropyrrolo[3,4-c]pyrrole-1-phosphonate]?
CNS Prediction [1]: CNS+/− (compounds of uncertain BBB permeation (CNS+/−): 5,179>Pe (10^−6 cm s^−1)>2,083); Selectivity I2/α2 (I2-IR; antilogarithm of the difference between pKi for I2-IR and pKi for α2-AR): 19; [^3H]-2-BFI I2 binding affinity (pKi) (I2-IR): 8.57 ± 0.39; Papp (in vitro): 4.6 ± 0.7 ×10⁻⁶ cm/s

For `O=C1[C@@H]2[C@@H](C=N[C@@]2(c2ccccc2)P(=O)(Oc2ccccc2)Oc2ccccc2)C(=O)N1c1ccccc1` (racemic) [Compound I-26, Diphenyl (1RS,3aSR,6aSR)-4,6-dioxo-1,5-diphenyl-1,3a,4,5,6,6a-hexahydropyrrolo[3,4-c]pyrrole-1-phosphonate], which “CNS Prediction” value [1] is on record?
Its value is “CNS+/− (compounds of uncertain BBB permeation (CNS+/−): 5,179>Pe (10^−6 cm s^−1)>2,083)”.

What about the “[^3H]-2-BFI I2 binding affinity (pKi)” value (I2-IR) of the same compound?
Its value is 5.86 ± 1.22.

And the “dissolution” value [2]?
The value was “I-26*”.

What about the Papp (in vitro) of the same compound?
The Papp was 2.3 ± 0.04 ×10⁻⁶ cm/s.

Which results are given for `CCOP(=O)(OCC)[C@]1(c2ccccc2)N=C[C@H]2C(=O)N(c3cccc([N+](=O)[O-])c3)C(=O)[C@H]21` (racemic) [Compound I-28, Diethyl (1RS,3aSR,6aSR)-5-(3-nitrophenyl)-4,6-dioxo-1-phenyl-1,3a,4,5,6,6a-hexahydropyrrolo[3,4-c]pyrrole-1-phosphonate]?
CNS Prediction [1]: CNS+/− (compounds of uncertain BBB permeation (CNS+/−): 5,179>Pe (10^−6 cm s^−1)>2,083); [^3H]-2-BFI I2 binding affinity (pKi) (I2-IR): 6.81 ± 0.27; dissolution [2]: I-28*; Papp (in vitro): 4.5 ± 0.25 ×10⁻⁶ cm/s

Which “CNS Prediction” value [1] does the source give for `CCOP(=O)(OCC)[C@]1(c2ccccc2)N=C[C@H]2C(=O)N(Cc3ccccc3)C(=O)[C@H]21` (racemic) [Compound I-29, Diethyl (1RS,3aSR,6aSR)-5-benzyl-4,6-dioxo-1-phenyl-1,3a,4,5,6,6a-hexahydropyrrolo[3,4-c]pyrrole-1-phosphonate] here?
Its value is “CNS+ (compounds of high BBB permeation (CNS+): Pe (10^−6 cm s^−1)>5,179)”.

And the “[^3H]-2-BFI I2 binding affinity (pKi)” value (I2-IR)?
The value was 5.26 ± 0.22.

And the “dissolution” value [2]?
The value was “I-29*”.

What about the Papp (in vitro) of the same compound?
Its Papp is > 30 ×10⁻⁶ cm/s.

With `CCOP(=O)(OCC)[C@]1(c2ccccc2)N=C[C@H]2C(=O)N(c3ccc(-c4ccccc4)cc3)C(=O)[C@H]21` (racemic) [Compound I-32, Diethyl (1RS,3aSR,6aSR)-5-(1,1′-biphenyl)-4-yl-4,6-dioxo-1-phenyl-1,3a,4,5,6,6a-hexahydropyrrolo[3,4-c]pyrrole-1-phosphonate] as the compound, how does the “CNS Prediction” value [1] read?
The value was “CNS+ (compounds of high BBB permeation (CNS+): Pe (10^−6 cm s^−1)>5,179)”.

What about the “[^3H]-2-BFI I2 binding affinity (pKi)” value (I2-IR) of the same compound?
The value was 7.90 ± 0.46.

And the Papp (in vitro)?
The Papp was 8.2 ± 0.3 ×10⁻⁶ cm/s.

For `CCOP(=O)(OCC)[C@]1(c2ccccc2)N=C[C@H]2C(=O)N(CCc3ccccc3)C(=O)[C@H]21` (racemic) [Compound I-33, Diethyl (1RS,3aSR,6aSR)-4,6-dioxo-5-phenethyl-1-phenyl-1,3a,4,5,6,6a-hexahydropyrrolo[3,4-c]pyrrole-1-phosphonate], which “CNS Prediction” value [1] is on record?
The value was “CNS+ (compounds of high BBB permeation (CNS+): Pe (10^−6 cm s^−1)>5,179)”.

And the “Selectivity I2/α2” value (I2-IR)?
The value was 182.

And the “[^3H]-2-BFI I2 binding affinity (pKi)” value (I2-IR)?
Its value is 5.85 ± 0.18.

And the Papp (in vitro)?
The Papp was 6.2 ± 0.3 ×10⁻⁶ cm/s.

For `CCOP(=O)(OCC)[C@]1(c2ccccc2)N=C[C@H]2C(=O)N(c3ccc(Oc4ccccc4)cc3)C(=O)[C@H]21` (racemic) [Compound I-34, Diethyl (1RS,3aSR,6aSR)-4,6-dioxo-5-(4-phenoxyphenyl)-1-phenyl-1,3a,4,5,6,6a-hexahydropyrrolo[3,4-c]pyrrole-1-phosphonate], which “CNS Prediction” value [1] is on record?
Its value is “CNS+ (compounds of high BBB permeation (CNS+): Pe (10^−6 cm s^−1)>5,179)”.

What about the “[^3H]-2-BFI I2 binding affinity (pKi)” value (I2-IR) of the same compound?
The value was 6.96 ± 0.30.

What about the Papp (in vitro) of the same compound?
The Papp was 6.5 ± 0.02 ×10⁻⁶ cm/s.

What does the source list for `CCOP(=O)(OCC)[C@]1(c2ccccc2)N=C[C@H]2C(=O)N(c3ccc(Br)cc3)C(=O)[C@H]21` (racemic) [Compound I-47, Diethyl (1RS,3aSR,6aSR)-5-(4-bromophenyl)-4,6-dioxo-1-phenyl-1,3a,4,5,6,6a-hexahydropyrrolo[3,4-c]pyrrole-1-phosphonate]?
CNS Prediction [1]: CNS+/− (compounds of uncertain BBB permeation (CNS+/−): 5,179>Pe (10^−6 cm s^−1)>2,083); dissolution [2]: I-47*; Papp (in vitro): 4.4 ± 0.4 ×10⁻⁶ cm/s

Which results are given for `CCOP(=O)(OCC)[C@]1(c2ccccc2)N=C[C@H]2C(=O)N(c3cc([N+](=O)[O-])ccc3C)C(=O)[C@H]21` (racemic) [Compound I-50, Diethyl (1RS,3aSR,6aSR)-5-(2-methyl-5-nitrophenyl)-4,6-dioxo-1-phenyl-1,3a,4,5,6,6a-hexahydropyrrolo[3,4-c]pyrrole-1-phosphonate]?
CNS Prediction [1]: CNS− (compounds of low BBB permeation (CNS−): Pe (10^−6 cm s^−1)<2,083); dissolution [2]: I-50*; Papp (in vitro): 1.4 ± 0.04 ×10⁻⁶ cm/s

What does the source list for `CCOP(=O)(OCC)[C@]1(c2ccccc2)N=C[C@H]2C(=O)N(c3cccc(C(F)(F)F)c3)C(=O)[C@H]21` (racemic) [Compound I-52, Diethyl (1RS,3aSR,6aSR)-4,6-dioxo-1-phenyl-5-[3-(trifluoromethyl)phenyl]-1,3a,4,5,6,6a-hexahydropyrrolo[3,4-c]pyrrole-1-phosphonate]?
CNS Prediction [1]: CNS+ (compounds of high BBB permeation (CNS+): Pe (10^−6 cm s^−1)>5,179); Papp (in vitro): 6.9 ± 0.2 ×10⁻⁶ cm/s

For `CCOP(=O)(OCC)[C@]1(c2ccccc2)N=C[C@H]2C(=O)N(c3cccc(Cl)c3)C(=O)[C@H]21` (racemic) [Compound I-53, Diethyl (1RS,3aSR,6aSR)-5-(3-chlorophenyl)-4,6-dioxo-1-phenyl-1,3a,4,5,6,6a-hexahydropyrrolo[3,4-c]pyrrole-1-phosphonate], which “CNS Prediction” value [1] is on record?
The value was “CNS+/− (compounds of uncertain BBB permeation (CNS+/−): 5,179>Pe (10^−6 cm s^−1)>2,083)”.

What about the “dissolution” value [2] of the same compound?
Its value is “I-53*”.

And the Papp (in vitro)?
The Papp was 3.7 ± 0.1 ×10⁻⁶ cm/s.

For `CCOP(=O)(OCC)[C@]1(c2ccccc2)N=C[C@H]2C(=O)N(CC)C(=O)[C@H]21` (racemic) [Compound I-54, Diethyl (1RS,3aSR,6aSR)-5-ethyl-4,6-dioxo-1-phenyl-1,3a,4,5,6,6a-hexahydropyrrolo[3,4-c]pyrrole-1-phosphonate], which “CNS Prediction” value [1] is on record?
The value was “CNS+/− (compounds of uncertain BBB permeation (CNS+/−): 5,179>Pe (10^−6 cm s^−1)>2,083)”.

What about the Papp (in vitro) of the same compound?
Its Papp is 3.7 ± 0.5 ×10⁻⁶ cm/s.

Which “CNS Prediction” value [1] does the source give for `CCOP(=O)(OCC)[C@]1(c2ccccc2)N=C[C@H]2C(=O)N(C(C)(C)C)C(=O)[C@H]21` (racemic) [Compound I-55, Diethyl (1RS,3aSR,6aSR)-5-(tert-butyl)-4,6-dioxo-1-phenyl-1,3a,4,5,6,6a-hexahydropyrrolo[3,4-c]pyrrole-1-phosphonate] here?
The value was “CNS+ (compounds of high BBB permeation (CNS+): Pe (10^−6 cm s^−1)>5,179)”.

What about the Papp (in vitro) of the same compound?
The Papp was 6.3 ± 0.3 ×10⁻⁶ cm/s.

For `CCOP(=O)(OCC)[C@]1(c2ccccc2)N=C[C@H]2C(=O)N(c3cccc4ccccc34)C(=O)[C@H]21` (racemic) [Compound I-56, Diethyl (1RS,3aSR,6aSR)-5-(naphth-1-yl)-4,6-dioxo-1-phenyl-1,3a,4,5,6,6a-hexahydropyrrolo[3,4-c]pyrrole-1-phosphonate], which “CNS Prediction” value [1] is on record?
Its value is “CNS− (compounds of low BBB permeation (CNS−): Pe (10^−6 cm s^−1)<2,083)”.

What about the Papp (in vitro) of the same compound?
Its Papp is 1.4 ± 0.06 ×10⁻⁶ cm/s.

Which results are given for `CCOP(=O)(OCC)[C@@]1(Cc2ccccc2)N=C[C@H]2C(=O)N(C3CCCCC3)C(=O)[C@H]21` (racemic) [Compound I-57, Diethyl (1RS,3aSR,6aSR)-1-benzyl-5-cyclohexyl-4,6-dioxo-1,3a,4,5,6,6a-hexahydropyrrolo[3,4-c]pyrrole-1-phosphonate]?
CNS Prediction [1]: CNS+/− (compounds of uncertain BBB permeation (CNS+/−): 5,179>Pe (10^−6 cm s^−1)>2,083); Papp (in vitro): 5.1 ± 0.01 ×10⁻⁶ cm/s

For `c1ccc2c(c1)OCC(C1=NCCN1)O2` (stereo not shown) [Idazoxan, reference compound], which “[^3H]-2-BFI I2 binding affinity (pKi)” value (I2-IR) is on record?
Its value is 7.27±0.07 and 7.41 ± 0.63.
